Drawing on patent US20110301142A1, “ANTAGONISTS OF LYSOPHOSPHATIDIC ACID RECEPTORS” (priority 2008, published 2011), this text covers IC50 for two compounds.

pIC50: −log10 of the molar value.

In one assay the target is T1, human LPA1 (Homo sapiens, UniProt Q92633).
T1 construct: the full-length cDNA for human LPA1 was obtained by PCR of the reverse transcription reaction; expressed in transfected cells
Put plainly: LPA1 calcium flux assay (HLPA1 Ca Flux). Format: cell-based. Conditions: Human LPA1 expressing CHO cells, stimulated with 10 nM LPA. The method in brief: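 CHO cells stably expressing cloned human LPA1, serum-starved overnight and loaded with Calcium 4 dye, were preincubated 30 min at room temperature with compound. Cells were then challenged with 10 nM LPA and intracellular Ca2+ measured; IC50 values came from titration curves.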
A general note: Calcium assays in cells follow changes in intracellular calcium, usually with a dye or a luminescent sensor.

A further assay has as its target T2, human LPA3 (Homo sapiens, UniProt Q9UBY5).
T2 construct: The full-length cDNA fragment for human LPA3 was obtained by PCR from the vector; expressed in transfected cells; cDNA from the Missouri S&T cDNA Resource Center
T2 sequence (Q9UBY5 1-353): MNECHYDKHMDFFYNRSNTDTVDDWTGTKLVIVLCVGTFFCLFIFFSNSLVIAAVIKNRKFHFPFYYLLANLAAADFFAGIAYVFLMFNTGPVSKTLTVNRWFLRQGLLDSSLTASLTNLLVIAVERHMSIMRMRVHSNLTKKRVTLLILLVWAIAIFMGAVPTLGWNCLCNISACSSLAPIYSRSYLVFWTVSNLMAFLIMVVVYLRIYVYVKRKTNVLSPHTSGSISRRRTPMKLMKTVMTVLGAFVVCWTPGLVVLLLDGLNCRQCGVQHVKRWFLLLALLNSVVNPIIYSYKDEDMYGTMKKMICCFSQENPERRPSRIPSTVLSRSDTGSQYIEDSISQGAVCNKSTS
Briefly: LPA3 calcium flux assay. Format: cell-based. Conditions: Human LPA3 expressing CHO cells, stimulated with 10 nM LPA; read-out: HLPA3 Ca Flux IC50. The gist of the method: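 Stably transfected CHO cells, serum-starved overnight, loaded with Calcium 4 dye 1 h at 37 °C in HBSS/20 mM Hepes with 0.3% fatty-acid-free HSA. Compounds preincubated 30 min at room temperature, then cells stimulated with 10 nM LPA; intracellular Ca2+ read by fluorescence; IC50 from titration curves.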

T1 sequence (Q92633 whole entry): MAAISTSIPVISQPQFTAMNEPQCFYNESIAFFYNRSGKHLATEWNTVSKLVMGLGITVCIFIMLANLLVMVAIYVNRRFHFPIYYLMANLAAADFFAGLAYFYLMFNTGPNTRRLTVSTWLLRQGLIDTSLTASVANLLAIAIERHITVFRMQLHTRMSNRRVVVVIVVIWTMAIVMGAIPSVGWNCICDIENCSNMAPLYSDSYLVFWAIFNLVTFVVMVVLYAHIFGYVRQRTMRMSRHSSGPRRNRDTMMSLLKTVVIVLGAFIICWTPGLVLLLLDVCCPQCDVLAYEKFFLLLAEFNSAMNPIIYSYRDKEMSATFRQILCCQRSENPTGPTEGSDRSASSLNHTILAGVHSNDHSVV

As for `Cc1noc(-c2ccc(-c3ccc(CC(=O)O)cc3)cc2)c1NC(=O)OC(C)c1cccc(Br)c1` (stereo not shown) [Compound 1-27, (4′-{4-[1-(3-Bromo-phenyl)-ethoxycarbonylamino]-3-methyl-isoxazol-5-yl}-biphenyl-4-yl)-acetic acid], the pIC50 was > 6.52 on human LPA1 and 4.30 to 6.00 at human LPA3.

Take `Cc1noc(-c2ccc(-c3ccc(C(C)C(=O)O)cc3)cc2)c1NC(=O)O[C@H](C)c1ccccc1Cl` (single isomer, unassigned) [Compound 1-127]: the pIC50 is > 6.52 at human LPA1 and 6.00 to 6.52 on human LPA3.

A word on the pIC50: it is the negative decadic logarithm of the IC50, by convention in mol/L.
